Test results taken from patent publication EP4389210A1, “HETEROARYL COMPOUNDS FOR THE CONTROL OF INVERTEBRATE PESTS” (BASF SE, priority 2022, dated 2024).

Key:
Type in all cases: in vivo
Aedes aegypti = assay: whole plant or invertebrate; details: 48 h, larval mortality visually assessed after 2 days at 28±1°C, read-out: mortality in comparison with untreated controls
Procedure: For evaluating control of yellow fever mosquito (Aedes aegypti) the test unit consisted of 96-well-microtiter plates containing 200µl of tap water per well and 5-15 freshly hatched A. aegypti larvae.
The active compounds were formulated using a solution containing 75% (v/v) water and 25% (v/v) DMSO. Different concentrations of formulated compounds or mixtures were sprayed onto the insect diet at 2.5µl, using a custom-built micro atomizer, at two replications.
After application, microtiter plates were incubated at 28±1°C, 80±5 % RH for 2 days. Larval mortality was then visually assessed.

Dichromothrips corbetti = assay: Orchid thrips (Dichromothrips corbetti) floral-immersion test; details: adult thrips on dipped orchid petals, recorded 72 hours after treatment, read-out: mortality in comparison with untreated controls
Procedure: Dichromothrips corbetti adults used for bioassay were obtained from a colony maintained continuously under laboratory conditions. For testing purposes, the test compound is diluted in a 1:1 mixture of acetone:water (vol:vol), plus Kinetic HV at a rate of 0.01% v/v.
Thrips potency of each compound was evaluated by using a floral-immersion technique. All petals of individual, intact orchid flowers were dipped into treatment solution and allowed to dry in Petri dishes. Treated petals were placed into individual re-sealable plastic along with about 20 adult thrips. All test arenas were held under continuous light and a temperature of about 28°C for duration of the assay. After 3 days, the numbers of live thrips were counted on each petal. The percent mortality was recorded 72 hours after treatment.

Spodoptera eridania = assay: Southern armyworm (Spodoptera eridania), 2nd instar larvae, foliar spray on lima bean plants; details: 96 h, 2nd instar larvae on sprayed lima bean plants, assessed 4 days after treatment, read-out: mortality in comparison with untreated controls
Procedure: The active compounds were formulated by a Tecan liquid handler in 100% cyclohexanone as a 10,000 ppm solution supplied in tubes. The 10,000 ppm solution was serially diluted in 100% cyclohexanone to make interim solutions. These served as stock solutions for which final dilutions were made by the Tecan in 50% acetone:50% water (v/v) into 10 or 20ml glass vials. A nonionic surfactant (Kinetic®) was included in the solution at a volume of 0.01% (v/v). The vials were then inserted into an automated electrostatic sprayer equipped with an atomizing nozzle for application to plants/insects. Lima bean plants (variety Sieva) were grown 2 plants to a pot and selected for treatment at the 1st true leaf stage. Test solutions were sprayed onto the foliage by an auto-mated electrostatic plant sprayer equipped with an atomizing spray nozzle. The plants were dried in the sprayer fume hood and then removed from the sprayer. Each pot was placed into perforated plastic bags with a zip closure. Ten to 11 armyworm larvae were placed into the bag and the bags zipped closed. Test plants were maintained in a growth room at about 25°C and about 20-40% relative humidity for 4 days, avoiding direct exposure to fluorescent light (14:10 light:dark photoperiod) to prevent trapping of heat inside the bags. Mortality and reduced feeding were assessed 4 days after treatment, compared to untreated control plants.

Heliothis virescens = assay: Tobacco budworm (Heliothis virescens) control, 96-well microtiter plate insect diet test with eggs; details: 120 h, egg and larval mortality visually assessed after 5 days at about 28 ± 1°C, read-out: mortality in comparison with untreated controls
Procedure: For evaluating control of tobacco budworm (Heliothis virescens) the test unit consisted of 96-well-microtiter plates containing an insect diet and 15-25 H. virescens eggs.
The compounds were formulated using a solution containing 75% v/v water and 25% v/v DMSO. Different concentrations of formulated compounds were sprayed onto the insect diet at 10 µl, using a custom-built micro atomizer, at two replications.
After application, microtiter plates were incubated at about 28 ± 1°C and about 80 ± 5 % relative humidity for 5 days. Egg and larval mortality was then visually assessed.

Anthonomus grandis = assay: Boll weevil (Anthonomus grandis) control, 96-well microtiter plate insect diet test with eggs; details: 120 h, egg and larval mortality visually assessed after 5 days at about 25 ± 1°C, read-out: mortality in comparison with untreated controls
Procedure: For evaluating control of boll weevil (Anthonomus grandis) the test unit consisted of 96-well-microtiter plates containing an insect diet and 5-10 A. grandis eggs.
The compounds were formulated using a solution containing 75% v/v water and 25% v/v DMSO. Different concentrations of formulated compounds were sprayed onto the insect diet at 5µl, using a custom-built micro atomizer, at two replications.
After application, microtiter plates were incubated at about 25 ± 1°C and about 75 ± 5 % relative humidity for 5 days. Egg and larval mortality was then visually assessed.

CC(NC(=O)c1cc(Cl)cc(C(F)(F)F)c1)c1ncccc1-n1nccn1 (stereo not drawn) [Compound I-1]
≥ 75%: mortality at 2500 ppm (Aedes aegypti) | mortality at 300 ppm (Dichromothrips corbetti) | mortality at 300 ppm (Spodoptera eridania) | mortality at 2500 ppm (Heliothis virescens) | mortality at 2500 ppm (Anthonomus grandis)

CC(NC(=O)c1cc(Cl)cc(C(F)(F)F)c1)c1ncccc1-n1cc(C#N)cn1 (stereo not drawn) [Compound I-2]
≥ 75%: mortality at 2500 ppm (Aedes aegypti) | mortality at 300 ppm (Spodoptera eridania) | mortality at 2500 ppm (Anthonomus grandis)

CC(NC(=O)c1cc(Cl)cc(C(F)(F)F)c1)c1nc(Cl)ccc1-n1nccn1 (stereo not drawn) [Compound I-3, 3-chloro-N-[1-[6-chloro-3-(triazol-2-yl)-2-pyridyl]ethyl]-5-(trifluoromethyl)benzamide]
≥ 75%: mortality at 2500 ppm (Aedes aegypti) | mortality at 300 ppm (Spodoptera eridania) | mortality at 2500 ppm (Heliothis virescens) | mortality at 2500 ppm (Anthonomus grandis)
